Measured values: US20230285337A1, “LONG ACTING ANTICANCER COMPOSITIONS” (INTRAGEL THERAPEUTICS LTD., priority 2020, published 2023)

Columns and labels:
[1] = test system: Head and Neck Cancer tumor cells; test: In vivo testing of the cisplatin formulation for head and neck cancer with radiotherapy; conditions: nude mice, treatment 20 days after cell injection, 8 Gy irradiation at day 21 and 24, terminated day 50
Protocol: In this study, 3 experimental groups were used, 6 nude mice per group. All mice were injected with 600000 tumor cells. […] Cisplatin solutions were injected IP for 4 consecutive weeks, a total of 4 administrations. The animals were irradiated with 8 Gy at day 21 and day 24. The experiment was terminated at day 50.

[2] = rat, in vivo, iv, 5 mg/kg
Protocol: Polymer-cisplatin was injected subcutaneously to mice at the amount 10, 20, 40 µL per mice that is 4, 8, 16 mg cisplatin/Kg. As controls, 50µL of the drug free polymer was injected and 200 µL IV injection at a dose of 5 mg/kg. The mice were observed daily for morbidity and mortality, and daily for general clinical signs (cage side observation): changes in the skin, fur, eyes, nose, mouth, head, respiration, urine, feces, locomotor, and overall wellness.
An animal showing one of the humane endpoints according to Clinical Signs″, SOP-06-019, were euthanized and subjected to the termination procedure. Blood collection for cisplatin content was at 0(baseline), 1 h, 4 h, 8 h, 24 h,48 h,96 h, 168 h, thereafter once weekly until week 4. Blood for CBC and Biochemistry was at: 0(Baseline), 24 h, 72 h, 168 h thereafter once weekly until sacrifice. For the IV injected mice, plasma was collected at 0(baseline), 5 m, 15 m, 30 m, 1 h, 2 h, 4 h, 8 h, 24 h, 48 h, 72 h, and 96 h. Whole blood and Blood Biochemistry was at 0(Baseline), 24h and 96h. Whole blood was collected from each animal and treated according to common procedures. Urine collection amount was recorded at 0-6, 12-24, 48-72h, 72-96h, 96-120h and once weekly thereafter.

[NH2][Pt]([NH2])([Cl])[Cl] [cisplatin solution, Cisplatin]
effect on the tumor (tumor size) [1]: did not show any effect on the tumor
blood count (HGB, RBG & HCT) [2]: drastic drop in markers
body weight [2]: lower body weight
kidneys performance (creatinine and urea excretion) [2]: deteriorated kidneys performance
side effects, behaviour after injection [2]: severe side effects
